Tests used:
[1] = Dynamic light scattering (DLS) solubility assay; assay type: physicochemical; settings: normalized intensity ratio of 25 μM compound vs DMSO, in PBS
Experimental: Dynamic light scattering (DLS) (see Table 1, column 3) is a tool for studying the diffusion behavior of macromolecules in solution. To profile compound solubility, DLS assay was developed for measuring aggregation of small molecule compounds. Compound stock solution was prepared in DMSO. Dilution series were made for each compound in DMSO to ensure a final 1× assay concentration range of 200 μM to 0.78 μM. For example, if the final DMSO concentration was 1%, compounds were prepared at 100× concentrations ranging from […] to 78 μM. Dilute compounds in PBS solution to final concentration. Place 60 μl/well in 96 well plates and 3 replicates for each sample. Data were collected using a DynaPro Plate Reader III (WYATT Technologies, Inc., USA). The instrument was adjusted to measure the optimal light scattering intensity according to the manufacturer's instructions. […] The ratio over 2 means (−) insoluble. The ratio below 2 means (+) soluble and around 2 means (+/−).

[2] = target: CUL4A-DDB1-BPB interaction (Homo sapiens (Human), UniProt Q16531); assay: AlphaLISA in vitro binding assay, CUL4A and DDB1-BPB binding; settings: inhibition of CUL4A and DDB1-BPB binding
Procedure, shortened: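 Compound disruption of CUL4A binding to DDB1-BPB measured by AlphaLISA/AlphaScreen bead proximity in 384-well format. IC50 from nonlinear log(inhibitor)-vs-response curve fit.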

[3] = test system: UV-induced CUL4-dependent DDB2 degradation in MEF-F-DDB2 cells; assay: Cell-based assay for inhibition of UV-induced CUL4-dependent DDB2 degradation; set-up: key: (+) means that the normalized DDB2/α-tubulin ratio is higher in the compound treated sample than DMSO treated sample; (−) means that no change happens between compound treated sample with control sample; settings: DDB2/α-tubulin by Western blot
Procedure, shortened: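 MEF cells expressing Flag-DDB2, in serum-free medium, treated with DMSO or compound, UV-irradiated (254 nm, 0.2 W/m^2), then harvested. Flag-DDB2 measured by western blot against α-tubulin; (+) denotes normalized DDB2/α-tubulin above DMSO, (−) no change.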

[4] = test system: CUL4A^high MDA-MB-468 breast cancer cells; assay: Cell killing in CUL4-high MDA-MB-468 cells (CellTiter Glo); assay type: cell-based; settings: Homo sapiens, 192 h; MDA-MB-468 cells, 8 days treatment; read-out: EC50 CUL4-High Cells (cell killing)
Procedure, shortened: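 Cells seeded, treated after 24 h with DMSO or compound (0 to 20 μM). Medium and compound replaced every 48 h over 8 days. Viability measured by CellTiter-Glo luminescence; EC50 (50% killing) from log(inhibitor) vs response nonlinear fit.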

[5] = test system: CUL4A^low T47D breast cancer cells; assay: Cell killing in CUL4-low T47D cells (CellTiter Glo); assay type: cell-based; settings: Homo sapiens, 192 h; T47D cells, 8 days treatment; read-out: EC50 CUL4-Low Cells (cell killing)
Experimental: EC50 indicates compound concentration can cause 50% cell killing in CUL4° ^w T47D cells (see Table 1, column 7). CUL4A^low T47D breast cancer cells were seeded in 96 well plate. […] Change fresh medium and compounds every 48 hours. After 8 days treatment, cell viability was examined by using CellTiter Glo kit (Promega #7570) following the manufacturer's guidelines (https://www.promega.com/-/media/files/resources/protocols/technical-bulletins/0/celltiter-glo-luminescent-cell-viability-assay-protocol.pdf?rev=0d95c232094b41daa06d0c110d1d916f&sc_lang=en, hereby incorporated by reference in its entirety for all purposes). EC50 concentration was calculated by Prism 8 XY analysis nonlinear regression (curve fit-Log(inhibitor) vs response). EC50 indicates cell killing potential in CUL4 low T47D cell line and the EC50 difference between CUL4^high and CUL4^low cells indicates the small molecule cause specific cell killing.
CUL4A^high MDA-MB-468, CUL4^low (T47D), and MCF7 breast cancer cells were seeded in 96 well plates separately. […] Replace with fresh medium and compounds every 48 hours. After 8 days treatment, cell viability was examined by CellTiter Glo kit (Promega #7570). First, transfer the appropriate volume (10 ml for Cat. #G7570) of CellTiter-Glo® Buffer into the amber bottle containing CellTiter-Glo® Substrate to reconstitute the lyophilized enzyme/substrate mixture. This forms the CellTiter-Glo® Reagent. Second, add CellTiter-Glo® Reagent in an equal volume (100 μl per well for 96-well plates) to all wells. Mix contents for 2 minutes on an orbital shaker to induce cell lysis. Incubate at room temperature for 15 minutes to stabilize luminescent signal. Then record luminescence. EC50 concentration was calculated by Prism 8 XY analysis nonlinear regression (curve fit-Log(inhibitor) vs response).

[6] = target: T1, DDB1-BPB (Homo sapiens (Human), UniProt Q16531); assay: Microscale Thermophoresis (MST) binding to DDB1-BPB; settings: labeled DDB1-BPB, 25° C.
Experimental: Kd represents dissociation constant, which measures the affinity of small molecule binding to the scaffold DDB1-BPB by Microscale Thermophoresis (MST) (see Table 1, column 9). MST experiments were performed on a Monolith NT 115 system (Nano Temper Technologies, Munich, Germany) using 100% LED and 60% IR-laser power (https://physiology.case.edu/media/eq manuals/eq_manual_nano-temper_mst_starting_guide.pdf, hereby incorporated by reference in its entirety for all purposes). The labeling of DDB1-BPB ([…]) was performed in labeling buffer with NHS-Red reactive dye (30 μM) (Nanotemper), which reacts efficiently with the primary amines of the proteins to form a stable dye protein conjugates. The labeling reaction was carried out at RT. A 16-point serial dilution (1:1) was prepared for compound at the final concentration ranged from 200 µM to 3 nM in PBS containing 0.05% tween. The samples were filled into Premium capillaries and measurements were conducted at 25° C. An equation implemented by the software MO-S002 MO Affinity Analysis, provided by the manufacturer, was used for fitting normalized fluorescence values at different concentrations of ligands.

[7] = target: T1, DDB1-BPB; assay: Surface Plasmon Resonance (SPR) binding to DDB1-BPB; settings: DDB1-BPB immobilized
Text: Kd represents dissociation constant, which measures the affinity of small molecule binding to the scaffold DDB1-BPB by Surface Plasmon Resonance (SPR) (https://www.bio-rad.com/webroot/web/pdf/lsr/literature/Bulletin_6414.pdf, hereby incorporated by reference in its entirety) (see Table 1, column 8). To assess the interaction between DDB1-BPB and compounds, a multi-parametric SPR instrument (BioRad ProteON XPR360) was used. DDB1-BPB was immobilized onto the GLH sensor surface in a variety of ways as follows: flow channels were activated in parallel with 1/20 diluted EDC/SNHS. DDB1-BPB was diluted to 0.1 mg/mL in sodium acetate pH 4.5 and directly coupled onto channel for 4 min. Excess reactive esters were blocked with a 5-min injection of 1 M ethanolamine. Mean immobilization levels were 17,000 RU with <2% variation along a strip. One channel was left unmodified to provide an additional reference surface. Next, the binding kinetics of compounds on surfaces was determined in a single injection using a “one-shot” kinetic mode. Typically, compound was prepared as a twofold serial dilution (0, 3.125, 6.25, 12.5, 25, 50 μM) and injected for 60 s at […]. Dissociation was monitored for 800 s. Surfaces were regenerated with multiple 30-s pulses of 60 mM phosphoric acid so that the experiment could be reproduced. All resulting sensor grams were collected and analyzed using the ProteOn manager software.

Chain of CUL4A-DDB1-BPB interaction (Q16531 403-706): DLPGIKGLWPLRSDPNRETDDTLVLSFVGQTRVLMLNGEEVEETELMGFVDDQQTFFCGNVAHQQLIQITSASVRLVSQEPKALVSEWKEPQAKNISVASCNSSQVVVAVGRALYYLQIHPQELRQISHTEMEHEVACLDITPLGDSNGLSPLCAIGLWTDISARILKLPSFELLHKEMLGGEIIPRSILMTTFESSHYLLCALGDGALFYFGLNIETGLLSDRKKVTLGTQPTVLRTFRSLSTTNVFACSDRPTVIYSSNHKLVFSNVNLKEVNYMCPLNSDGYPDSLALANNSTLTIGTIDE
T1 sequence (Q16531 403-706): as above

| Structure (SMILES) | Solubility (DLS Assay) [1] | IC50 [2] | Kd [6] | AlphaLisa IC50 [2] | Kd (MST) [6] | Kd [7] | Degradation Inhibition (inhibition of UV-induced DDB2 degradation) [3] | EC50 [4] | EC50 [5] |
| --- | --- | --- | --- | --- | --- | --- | --- | --- | --- |
| Cc1ccc(S(=O)(=O)N(C)c2ccc(-c3nc(C(=O)O)cc4c3[nH]c3ccc(F)cc34)cc2)cc1 [PA2-1, 6-fluoro-1-[4-[methyl-(p-tolylsulfonyl)amino]phenyl]-9H-pyrido[3,4-b]indole-3-carboxylic acid] | -(insoluble) | 300 nM |  |  |  |  | − | 9.32 µM | > 100 µM |
| COc1ccc(S(=O)(=O)N(C)c2ccc(-c3nc(C(=O)O)cc4c3[nH]c3ccc(F)cc34)cc2)cc1 [PA2-2, 6-fluoro-1-[4-[(4-methoxyphenyl)-sulfonyl-methyl-amino]phenyl]-9H-pyrido[3,4-b]indole-3-carboxylic acid] | -(insoluble) | 890 nM |  |  |  |  | − | 8.45 µM | > 100 µM |
| CN(c1ccc(-c2nc(C(=O)O)cc3c2[nH]c2ccc(F)cc23)cc1)S(=O)(=O)c1ccc(F)cc1 [PA2-3, 6-fluoro-1-[4-[(4-fluorophenyl)sulfonyl-methyl-amino]phenyl]-9H-pyrido[3,4-b]indole-3-carboxylic acid] | -(insoluble) | 480 nM |  |  |  |  | − | 13.3 µM | > 100 µM |
| CN(c1ccc(-c2nc(C(=O)O)cc3c2[nH]c2ccc(F)cc23)cc1)S(=O)(=O)c1cccnc1 [PA2-6, 6-fluoro-1-(4-(N-methylpyridine-3-sulfonamido)phenyl)-9H-pyrido[3,4-b]indole-3-carboxylic acid] | -(insoluble) | 470 nM | 25.5 µM |  |  |  | − | 22.3 µM | > 100 µM |
| COC(=O)c1cc2c([nH]c3ccc(F)cc32)c(-c2ccc(N(C)S(=O)(=O)c3ccccc3)cc2)n1 [PA93-1] | -(insoluble) |  |  | Neg |  |  | − | 21.8 µM | > 100 µM |
| COC(=O)c1cc2c([nH]c3cccc(F)c32)c(-c2ccc(N(C)S(=O)(=O)c3ccccc3)cc2)n1 [PA99-1, methyl 5-fluoro-1-(4-(N-methylphenylsulfonamido)phenyl)-9H-pyrido[3,4-b]indole-3-carboxylate] | -(insoluble) |  | 321 µM | Neg |  |  | + | 3.47 µM | > 100 µM |

Further lines, with some results ahead:

| Solubility (DLS Assay) [1] | IC50 [2] | Kd [6] | AlphaLisa IC50 [2] | Kd (MST) [6] | Kd [7] | Structure (SMILES) | Degradation Inhibition (inhibition of UV-induced DDB2 degradation) [3] | EC50 [4] | EC50 [5] |
| --- | --- | --- | --- | --- | --- | --- | --- | --- | --- |
| -(insoluble) |  |  | Neg |  |  | COC(=O)c1cc2c([nH]c3ccccc32)c(-c2ccc(S(C)(=O)=O)cc2)n1 [PA54] | + | > 100 µM | > 100 µM |
| -(insoluble) |  |  | Neg | Insoluble |  | COC(=O)c1cc2c([nH]c3ccccc32)c(-c2ccc(NCc3ccc(F)cc3)cc2)n1 [PA57, methyl 1-[4-[(4-fluorophenyl)methylamino]phenyl]-9H-pyrido[3,4-b]indole-3-carboxylate] |  | 1.08 µM | 1.6 µM |
|  |  |  | Neg | Insoluble |  | COC(=O)c1cc2c([nH]c3ccccc32)c(-c2ccc(SCc3ccccc3)cc2)n1 [PA64, methyl 1-(4-benzylsulfanylphenyl)-9H-pyrido[3,4-b]indole-3-carboxylate] |  | 22.8 µM | > 20 µM |
|  | 5990 ± 430 nM | 59.6 µM |  |  |  | O=C(O)c1cc2c([nH]c3ccccc32)c(-c2ccc(SCc3ccccc3)cc2)n1 [PA66, 1-(4-benzylsulfanylphenyl)-9H-pyrido[3,4-b]indole-3-carboxylic acid] |  | 4.41 µM | 4 µM |
| +/− | 780 ± 20 nM |  |  |  | 4.57 µM | Cc1ccc2[nH]c3c(-c4ccc(S(C)(=O)=O)cc4)nc(C(=O)O)cc3c2c1 [PA72] | − |  |  |
| +/− | 7730 nM | 443 µM |  |  |  | Cc1ccc2c(c1)[nH]c1c(-c3ccc(N(C)S(=O)(=O)c4ccccc4)cc3)nc(C(=O)O)cc12 [PA106, 1-[4-[benzenesulfonyl(methyl)amino]phenyl]-7-methyl-9H-pyrido[3,4-b]indole-3-carboxylic acid] |  | 7.98 µM | > 100 µM |
| -(insoluble) | 17400 ± 7420 nM | 257 µM |  |  |  | CN(c1ccc(-c2nc(C(=O)O)cc3c2[nH]c2cc(-c4ccccc4)ccc23)cc1)S(=O)(=O)c1ccccc1 [PA115, 1-[4-[benzenesulfonyl(methyl)amino]phenyl]-7-phenyl-9H-pyrido[3,4-b]indole-3-carboxylic acid] |  | 2.15 µM | 3.86 µM |
|  | 2500 nM | 25.4 µM |  |  |  | CN(c1ccc(-c2nc(C(=O)O)cc3c2[nH]c2cc(Br)ccc23)cc1)S(=O)(=O)c1ccccc1 [PA117, 1-[4-[benzenesulfonyl(methyl)amino]phenyl]-7-bromo-9H-pyrido[3,4-b]indole-3-carboxylic acid] |  | 3.42 µM | 5.48 µM |
